We go through 15 compounds from patent US12180207B2 (ARRAY BIOPHARMA INC., priority 2018, dated 2024).

The IC50 is the concentration at which inhibition is half-maximal.

Test [1] addresses FGFR1 (SEQ ID NO: 1, amino acids 458-765) (Homo sapiens (Human), UniProt P11362). Kind of test: LC/MS FGFR1 kobs assay (covalent protein modification). The test is classed as binding. The following applies: 500 nM FGFR1, 3 μM compound. Summed up:
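Covalent labeling of FGFR1 kinase domain (aa 458-765) tracked over time by intact-protein LC/MS after formic acid quench. kobs derived by fitting DMSO-normalized percent unmodified FGFR1 to an exponential decay model.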

In test [2] the target is FGFR3 (SEQ ID NO: 5, amino acids 449-759) (Homo sapiens (Human), UniProt P22607). Kind of test: LC/MS FGFR3 kobs assay (covalent protein modification). The test is classed as binding. To be noted: 500 nM FGFR3, 3 μM compound. The procedure, abridged:
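The observed rate constant kobs comes from an exponential decay fit of percent unmodified kinase over time. Covalent modification was quantified by Q-TOF LC/MS of formic acid-quenched samples, normalized against DMSO controls.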

The target of test [3] is recombinant human FGFR3 (amino acids R397-T806) (Homo sapiens (Human), UniProt P22607). Description: FGFR3 enzyme activity assay (LanthaScreen TR-FRET). The test is classed as biochemical. The following applies: 25 μM ATP, 10 min incubation at 22° C., average of multiple determinations if made, read-out: FGFR3 Enz FRET IC50. Summed up: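 GST-HIS6-tagged human FGFR3 (R397-T806) was reacted with 100 nM Alexa Fluor 647-Poly-GT substrate and 25 μM ATP plus compound in HEPES/MgCl2/Triton buffer, pH 7.5, 2% DMSO, for 10 min at 22 °C.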
(Time-resolved FRET reads energy transfer from a long-lived donor to a nearby acceptor.)

Test [4] addresses recombinant human FGFR2 cytoplasmic domain (amino acids 403-822) (Homo sapiens (Human), UniProt P21802). Kind of test: FGFR2 enzyme activity assay (LanthaScreen TR-FRET). It is filed as biochemical. To be noted: 15 μM ATP, 20 min incubation at 22° C., average of multiple determinations if made, read-out: FGFR2 Enz FRET IC50. The procedure, abridged: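 His-tagged FGFR2 cytoplasmic domain ([…]) with 100 nM Alexa Fluor 647-poly-GT peptide and 15 μM ATP in HEPES/MgCl2/Triton buffer, pH 7.5, 2% DMSO, 20 min at 22 °C. EDTA-quenched, Eu-PY20 antibody added, TR-FRET read after 60 min.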

Sequence of recombinant human FGFR2 cytoplasmic domain (amino acids 403-822) (P21802 402-821): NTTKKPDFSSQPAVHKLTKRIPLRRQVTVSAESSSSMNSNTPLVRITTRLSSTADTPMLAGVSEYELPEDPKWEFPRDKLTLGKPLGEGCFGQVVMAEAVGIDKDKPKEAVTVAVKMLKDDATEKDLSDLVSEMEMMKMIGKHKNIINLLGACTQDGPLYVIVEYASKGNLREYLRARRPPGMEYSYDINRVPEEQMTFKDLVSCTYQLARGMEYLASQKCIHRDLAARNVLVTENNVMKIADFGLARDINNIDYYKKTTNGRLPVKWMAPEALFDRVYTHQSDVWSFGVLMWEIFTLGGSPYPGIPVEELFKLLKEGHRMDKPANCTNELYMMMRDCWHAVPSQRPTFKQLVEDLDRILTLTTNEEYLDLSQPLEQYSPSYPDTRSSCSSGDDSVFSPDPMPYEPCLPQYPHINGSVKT
Sequence of FGFR1 (SEQ ID NO: 1, amino acids 458-765) (P11362 458-765): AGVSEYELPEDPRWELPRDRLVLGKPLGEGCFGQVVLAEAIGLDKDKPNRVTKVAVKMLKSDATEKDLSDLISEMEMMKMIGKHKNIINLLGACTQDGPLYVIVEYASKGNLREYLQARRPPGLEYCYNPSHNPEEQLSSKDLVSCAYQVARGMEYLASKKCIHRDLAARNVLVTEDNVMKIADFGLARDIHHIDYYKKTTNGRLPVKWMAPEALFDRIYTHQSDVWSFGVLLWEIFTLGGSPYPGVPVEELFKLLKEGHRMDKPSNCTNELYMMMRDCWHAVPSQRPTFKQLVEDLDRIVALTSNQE
Sequence of FGFR3 (SEQ ID NO: 5, amino acids 449-759) (P22607 449-759): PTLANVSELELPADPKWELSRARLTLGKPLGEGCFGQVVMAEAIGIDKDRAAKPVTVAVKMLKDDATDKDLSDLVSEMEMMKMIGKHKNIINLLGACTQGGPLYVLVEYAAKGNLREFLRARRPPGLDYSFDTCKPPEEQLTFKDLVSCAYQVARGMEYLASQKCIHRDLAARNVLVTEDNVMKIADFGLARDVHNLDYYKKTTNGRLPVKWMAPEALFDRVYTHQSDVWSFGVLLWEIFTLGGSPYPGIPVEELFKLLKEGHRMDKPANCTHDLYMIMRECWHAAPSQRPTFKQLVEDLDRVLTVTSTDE
Sequence of recombinant human FGFR3 (amino acids R397-T806) (P22607 397-806): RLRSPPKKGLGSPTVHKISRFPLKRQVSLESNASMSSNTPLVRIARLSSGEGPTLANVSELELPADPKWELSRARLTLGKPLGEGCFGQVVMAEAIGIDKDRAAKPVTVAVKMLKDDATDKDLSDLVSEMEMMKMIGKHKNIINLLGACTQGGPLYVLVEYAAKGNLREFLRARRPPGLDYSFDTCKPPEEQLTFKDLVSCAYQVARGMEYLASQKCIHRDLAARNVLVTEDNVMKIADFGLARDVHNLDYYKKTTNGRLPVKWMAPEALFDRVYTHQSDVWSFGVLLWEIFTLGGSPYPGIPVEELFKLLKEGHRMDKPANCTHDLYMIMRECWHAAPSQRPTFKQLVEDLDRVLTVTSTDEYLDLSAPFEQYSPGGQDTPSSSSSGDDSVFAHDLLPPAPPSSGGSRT

Turning to `C=CC(=O)N1CC(C(=O)N2CCC(n3cnc(-c4cc(OC)c5c(C#N)cnn5c4)c3)CC2)C1` [Example 98, 6-(1-(1-(1-acryloylazetidine-3-carbonyl)piperidin-4-yl)-1H-imidazol-4-yl)-4-methoxypyrazolo[1,5-a]pyridine-3-carbonitrile], the “FGFR1 Enz kobs” value in test [1] is 0.00167 min⁻¹. For the same compound, in test [2], the “FGFR3 Enz kobs” value is 0.01995 min⁻¹. For the same compound, the IC50 was 9 nM in test [3] and 6 nM in test [4].

Regarding `C=CC(=O)N1CC(C(=O)N2CCC(c3ccc(-c4cc(OC)c5c(C#N)cnn5c4)cc3)CC2)C1` [Example 101, 6-(4-(1-(1-acryloylazetidine-3-carbonyl)piperidin-4-yl)phenyl)-4-methoxypyrazolo[1,5-a]pyridine-3-carbonitrile], in test [1], the “FGFR1 Enz kobs” value was determined as 0.00223 min⁻¹. Moreover, in test [2], the “FGFR3 Enz kobs” value is 0.01185 min⁻¹. Further, the IC50 in test [3] was 4 nM; in test [4] it was 3 nM.

With `C=CC(=O)N1CC(C)(C(=O)N2CCC(n3cc(-c4cc(OC)c5c(Cl)cnn5c4)cn3)CC2)C1` [Example 123, 1-(3-(4-(4-(3-chloro-4-methoxypyrazolo[1,5-a]pyridin-6-yl)-1H-pyrazol-1-yl)piperidine-1-carbonyl)-3-methylazetidin-1-yl)prop-2-en-1-one], in test [1], the “FGFR1 Enz kobs” value was 0.00126 min⁻¹. Moreover, in test [2], the “FGFR3 Enz kobs” value came out at 0.01169 min⁻¹. Moreover, the IC50 worked out at 8 nM in test [3] and 13 nM in test [4].

Regarding `C=CC(=O)N1CC(OC)(C(=O)N2CCC(n3cc(-c4cc(OC)c5c(Cl)cnn5c4)cn3)CC2)C1` [Example 124, 1-(3-(4-(4-(3-chloro-4-methoxypyrazolo[1,5-a]pyridin-6-yl)-1H-pyrazol-1-yl)piperidine-1-carbonyl)-3-methoxyazetidin-1-yl)prop-2-en-1-one], the “FGFR1 Enz kobs” value in test [1] came out at 0.00241 min⁻¹. The “FGFR3 Enz kobs” value in test [2] was 0.02484 min⁻¹. In addition, the IC50 is 8 nM in test [3] and 17 nM in test [4].

Regarding `C=CC(=O)N1CC(C(=O)N2CCC(n3cc(-c4cc(OC5CCC5)c5c(C#N)cnn5c4)cn3)CC2)C1` [Example 125, 6-(1-(1-(1-acryloylazetidine-3-carbonyl)piperidin-4-yl)-1H-pyrazol-4-yl)-4-cyclobutoxypyrazolo[1,5-a]pyridine-3-carbonitrile], the “FGFR1 Enz kobs” value in test [1] worked out at 0.00246 min⁻¹. In addition, the “FGFR3 Enz kobs” value in test [2] turned out to be 0.01842 min⁻¹. Moreover, the IC50 in test [3] and in test [4] was 3 nM throughout.

With `C=CC(=O)N1CC(C(=O)N2CCC(n3cc(-c4cc(OCC)c5c(C#N)cnn5c4)cn3)CC2)C1` [Example 126, 6-(1-(1-(1-acryloylazetidine-3-carbonyl)piperidin-4-yl)-1H-pyrazol-4-yl)-4-ethoxypyrazolo[1,5-a]pyridine-3-carbonitrile], the “FGFR1 Enz kobs” value in test [1] came out at 0.0028 min⁻¹. Moreover, in test [2], the “FGFR3 Enz kobs” value was determined as 0.01992 min⁻¹. Also, the IC50 in test [3] was 5 nM; in test [4], 6 nM.

Turning to `C=CC(=O)N1CC(C(=O)N2CCC(n3cc(-c4cc(OC(C)C)c5c(C#N)cnn5c4)cn3)CC2)C1` [Example 127, 6-(1-(1-(1-acryloylazetidine-3-carbonyl)piperidin-4-yl)-1H-pyrazol-4-yl)-4-isopropoxypyrazolo[1,5-a]pyridine-3-carbonitrile], in test [1], the “FGFR1 Enz kobs” value is 0.00133 min⁻¹. In addition, the “FGFR3 Enz kobs” value in test [2] is 0.01654 min⁻¹. Besides, the IC50 is 3 nM in test [3] and 5 nM in test [4].

Regarding `C=CC(=O)N1CC(C(=O)N2CCC(n3cc(-c4cc(OCC(C)C)c5c(C#N)cnn5c4)cn3)CC2)C1` [Example 128, 6-(1-(1-(1-acryloylazetidine-3-carbonyl)piperidin-4-yl)-1H-pyrazol-4-yl)-4-isobutoxypyrazolo[1,5-a]pyridine-3-carbonitrile], in test [1], the “FGFR1 Enz kobs” value worked out at 0.00134 min⁻¹. The “FGFR3 Enz kobs” value in test [2] came to 0.01702 min⁻¹. For the same compound, the IC50 in test [3] came to 3 nM; in test [4], 5 nM.

Turning to `C=CC(=O)N1CC(C(=O)N2CCC(n3cc(-c4cc(C(C)C)c5c(C#N)cnn5c4)cn3)CC2)C1` [Example 129, 6-(1-(1-(1-acryloylazetidine-3-carbonyl)piperidin-4-yl)-1H-pyrazol-4-yl)-4-isopropylpyrazolo[1,5-a]pyridine-3-carbonitrile], the “FGFR1 Enz kobs” value in test [1] was found to be 0.00148 min⁻¹. The “FGFR3 Enz kobs” value in test [2] worked out at 0.01646 min⁻¹. Besides, the values for the IC50 in test [3] and in test [4] were 6 nM and 9 nM, respectively.

`C=CC(=O)N1CC(C(=O)N2CCC(n3cc(-c4cc(-c5ccc(NC(=O)C6CC6)cc5F)c5c(C#N)cnn5c4)cn3)CC2)C1` [Example 130, N-(4-(6-(1-(1-(1-acryloylazetidine-3-carbonyl)piperidin-4-yl)-1H-pyrazol-4-yl)-3-cyanopyrazolo[1,5-a]pyridin-4-yl)-3-fluorophenyl)cyclopropane-carboxamide]: the “FGFR1 Enz kobs” value in test [1] is 0.00132 min⁻¹. In addition, in test [2], the “FGFR3 Enz kobs” value is 0.01127 min⁻¹. Moreover, the IC50 in test [3] is 2 nM; in test [4] it was 3 nM.

Consider `C=CC(=O)N1CC(C(=O)N2CCC(n3cc(-c4cc(-c5ccccc5F)c5c(C#N)cnn5c4)cn3)CC2)C1` [Example 131, 6-(1-(1-(1-acryloylazetidine-3-carbonyl)piperidin-4-yl)-1H-pyrazol-4-yl)-4-(2-fluorophenyl)pyrazolo[1,5-a]pyridine-3-carbonitrile], for which the “FGFR1 Enz kobs” value in test [1] worked out at 0.00146 min⁻¹. In addition, the “FGFR3 Enz kobs” value in test [2] turned out to be 0.01762 min⁻¹. Besides, the IC50 in test [3] was 4 nM; in test [4], 10 nM.

Turning to `C=CC(=O)N1CC(CN2CCC(n3cc(-c4cc(OC)c5c(C#N)cnn5c4)cn3)CC2)C1` [Example 132, 6-(1-(1-((1-acryloylazetidin-3-yl)methyl)piperidin-4-yl)-1H-pyrazol-4-yl)-4-methoxypyrazolo[1,5-a]pyridine-3-carbonitrile], in test [1], the “FGFR1 Enz kobs” value was 0.00146 min⁻¹. Further, the “FGFR3 Enz kobs” value in test [2] was determined as 0.013 min⁻¹. In addition, the results for the IC50 in test [3] and in test [4] were 8 nM and 13 nM, respectively.

With `COc1cc(-c2cnn(C3CCN(C(=O)C4CN(C(=O)/C=C/CN(C)C)C4)CC3)c2)cn2ncc(C#N)c12` [Example 143, (E)-6-(1-(1-(1-(4-(dimethylamino)but-2-enoyl)azetidine-3-carbonyl)piperidin-4-yl)-1H-pyrazol-4-yl)-4-methoxypyrazolo [1,5-a]pyridine-3-carbonitrile], in test [1], the “FGFR1 Enz kobs” value came to 0.00278 min⁻¹. In addition, the “FGFR3 Enz kobs” value in test [2] was 0.02052 min⁻¹. For the same compound, the IC50 in test [3] and in test [4] was 2 nM in each case.

In the case of `COc1cc(-c2cnn(C3CCN(C(=O)C4CN(C(=O)/C=C/CN5CCCCC5)C4)CC3)c2)cn2ncc(C#N)c12` [Example 145, (E)-4-methoxy-6-(1-(1-(1-(4-(piperidin-1-yl)but-2-enoyl)azetidine-3-carbonyl)piperidin-4-yl)-1H-pyrazol-4-yl)pyrazolo[1,5-a]pyridine-3-carbonitrile], in test [1], the “FGFR1 Enz kobs” value amounted to 0.00179 min⁻¹. Further, the “FGFR3 Enz kobs” value in test [2] came to 0.01811 min⁻¹. Further, the IC50 in test [3] and in test [4] was 3 nM in each case.

Take `COc1cc(-c2cnn(C3CCN(C(=O)C4CN(C(=O)/C=C/CN(C)C)C4)CC3)c2)cn2ncc(Cl)c12` [Example 174]: in test [1], the “FGFR1 Enz kobs” value turned out to be 0.00242 min⁻¹. The “FGFR3 Enz kobs” value in test [2] came to 0.02588 min⁻¹. In addition, the IC50 is 4 nM in test [3] and 6 nM in test [4].
